{"source": "patent US20060160897A1", "about": "“Topical Use of Valproic Acid for the Prevention or Treatment of Skin Disorders” (priority 2003, published 2006)", "key": {"[1]": {"tested_on": "inflammatory cytokines", "experiment": "Semiquantitative RT-PCR of cytokine mRNA, LPS stimulated keratinocytes", "type": "cell-based, human", "conditions": "HaCaT, 200 nM TSA or 5 mM VPA 4 hours, then LPS 100 ng/ml 24 hours, FIG. 12A", "description": "Human immortalized keratinocytes (HaCaT cells) were seeded at a density of 2.5 million cells per ml into 75 cm^2 flasks. […] After 24 hours at 37° C. cells were lysed and total RNA was isolated using the RNeasy mini kit from Qiagen.\nOne microgram of total RNA was transcribed to cDNA by standard methods using reverse transcriptase and an oligo-dT primer (Invitrogen). For semiquantitative PCR, 2 μl of cDNA was amplified by PCR using specific primers. Primers for PCR were synthesized by MWG and are as follows: […]"}, "[2]": {"tested_on": "HaCaT cells", "experiment": "Apoptosis assay, flow cytometry of Sub-G1 DNA containing cells", "type": "cell-based, human", "conditions": "drugs day 1, assay day 2, combinations VPA 1 mM + Tazarotene 1 or 2 μM, FIG. 5", "description": "Apoptosis assays: Apoptosis was measured by a Beckton Dickinson FACScalibur flow cytometer by analysing the percentage of Sub-G1 DNA containing cells. 10000 events were recorded for each sample. The amplification scale was linear for all parameters. Photomultiplier tension was set as to place the peak DNA content corresponding cells in G0/G1 at channel 300 in the FL2-H vs SCC—H graphs. Cells showing a less than peak DNA content (hypodiploid cells) and high SSC—H (granular high condensed cells) were regarded as apoptotic. The experiments were repeated three times in duplicate. Error bars represent 1 standard deviation.\nCells were plated in 35 mm diameter wells on day 0. Drugs were added on day 1. The apoptosis assay was carried out on day 2. […] Thus, the combinatorial activity of these two drugs must be explained via synergistic activity of this treatment."}, "[3]": {"tested_on": "IL-2 and TNF-α", "experiment": "ELISA of IL-2 and TNF-α, blood cells of VPA treated patient stimulated with CD3/CD28", "type": "in vivo, human", "conditions": "CD3/CD28 stimulated 24 hours", "description": "The cells were either left unstimulated or stimulated with CD3 and CD28 antibodies. After 24 hours at 37° C. the supernatant was collected and the secretion of IL-2 and TNF-α was quantified by ELISA (R&D Systems) (FIGS. 19A and B)."}, "[4]": {"tested_on": "HaCaT cells", "experiment": "MTT assay, growth of human immortalized keratinocytes", "type": "cell-based", "description": "MTT assay: This calorimetric assay detects the formation of formazan which is proportional to the number of cells present. Tissue culture medium containing drugs was removed and 200 μl of DME containing 2 mg/ml MTT ((3-4, 5-dimethyl thiazol-2yl) 2,5-diphenyltetrazolium bromide) was added to each well. 96-well plates were incubated at 37 ° C., and 10% CO2 for 30 minutes. Medium containing MTT was then removed and the cells were washed once with PBS. Following removal of the PBS, 200 μL DMSO was added to each well and plates were placed on a rotating platform shaker for 5 minutes. Results were obtained by reading the absorbance at a wavelength of 550 nm using a spectrophotometer. Results are expressed as percentages setting the control as 100%.\nFIG. 1 graphically depicts the results of growth assays performed on human immortalized keratinocytes (HaCaT cells), treated for three days with the indicated compounds. Drugs were added on the same day of plating (day 0). The MTT assay (to measure cell proliferation) was carried out on day 3. Various combinations of the drugs were used in the growth assays.\nCells were plated in wells on day 0. […] The MTT assay was carried out on day 3. Various combinations of the drugs were also used in the growth assays. […] Thus, the combinatorial activity of these two drugs must be explained via synergistic activity of this treatment.\nDrugs were added on the same day of plating (day 0). The MTT assay (to measure cell proliferation) was carried out on the third day. […] Thus, this combinatorial activity of these two drugs must be explained via synergistic activity of this treatment."}, "[5]": {"conditions": "vs untreated stimulated control"}}}
{"molecule": "CCCC(CCC)C(=O)O", "note": "[VPA, 2-propyl-pentanoic acid]", "values": [{"measurement": "IFN-γ mRNA transcript", "setting": "[1]", "result": "significantly reduced"}, {"measurement": "IL-6 mRNA level", "setting": "[1]; [5]", "result": "significant decrease"}, {"measurement": "TNF-α mRNA level", "setting": "[1]; [5]", "result": "significant decrease"}, {"measurement": "apoptosis (Sub-G1 DNA containing cells)", "setting": "[2]", "result": "clear increase in subG1 DNA content"}, {"measurement": "IL-2 in culture supernatant (ELISA)", "setting": "[3]", "result": "modulates the expression"}, {"measurement": "TNF-α in culture supernatant (ELISA)", "setting": "[3]", "result": "modulates the expression"}, {"measurement": "cell growth (MTT assay)", "setting": "[4]; MTT on day 3, combinations VPA 1 mM + Retinoic Acid 1 or 2 μM, FIG. 2", "result": "inhibited growth"}, {"measurement": "cell growth (MTT assay)", "setting": "[4]; MTT on the third day, 5 μM or 10 μM 5-FU and 1 mM VPA, FIG. 3", "result": "inhibited growth"}, {"measurement": "cell growth (MTT assay)", "setting": "[4]; treated three days, MTT on day 3, combinations VPA 1 mM + Tazarotene 1 or 2 μM, FIG. 1", "result": "inhibited cell growth"}]}
